{"source": "paper PMC8248988", "about": "“A signal capture and proofreading mechanism for the KDEL-receptor explains selectivity and dynamic range in ER retrieval” (eLife, 2021)", "tested_on": "BIP", "assay": "ER chaperone secretion assay, BIP", "assay_type": "cell-based, human", "text": "Figure 1. ER retrieval signal abundance and affinity are not correlated. (a) Sequence logos for ER resident proteins with C-terminal KDEL retrieval signals and variants thereof calculated using frequency or protein abundance ([Itzhak et al., 2017]; [Itzhak et al., 2016]). (b) Combined cellular concentrations of ER resident proteins with canonical KDEL, RDEL, and HDEL retrieval sequences in HeLa cells and mouse brain. (c) Competition binding assays for [^3H]-TAEHDEL and unlabelled TAEKDEL, TAERDEL, and TAEHDEL to the KDEL receptor. IC50 values for the competing peptides were used to calculate the apparent KDwith the Cheng-Prusoff equation ([Cheng and Prusoff, 1973]). (d) Endogenous KDEL receptor redistribution was measured in COS-7 cells in the absence (-ligand) or presence of K/R/H/A/DDEL (mScarlet-xDEL^sec). TGN46 was used as a Golgi marker. Scale bar is 10 µm. (e) The mean difference for K/R/H/A/DDEL comparisons against the shared no ligand control are shown as Cummings estimation plots. The individual data points for the fraction of KDEL receptor fluorescence in the Golgi are plotted on the upper axes with sample sizes and p values. Figure 1—source data 1. Source data for the ligand-induced KDELR receptor retrieval assays in Figure 1e. Figure 1—figure supplement 1. Abundance of ER resident proteins and chaperones in human cells and mouse brain. (a) The mean concentration of ER resident chaperones with the indicated ER retrieval sequence variant is plotted in the bar graph ([Itzhak et al., 2017]; [Itzhak et al., 2016]). […] Endogenous ER chaperone secretion was measured by western blotting after challenge with different retrieval signals, and plotted as a bar graph showing mean ± SEM (n = 3). […] (a) Distribution of human KDELR1 and (b) KDELR2 was measured in COS-7 cells in the absence (-ligand) or presence of K/R/H/A/DDEL retrieval signals (K/R/H/A/DDEL^sec). […] The fraction of KDEL receptor localised to the Golgi was measured before (no ligand) and after challenge with different retrieval signals as indicated. […]"}
{"substance": "ADEL [pcDNA3.1 hGHss-mScarlet-H. sapiens BiP639-654K651A (ADEL^SEC), secreted mScarlet fusion with human BiP C-terminus, ADEL signal]", "values": [{"measurement": "BiP secretion after challenge with retrieval signal", "setting": "mean, HeLa S3, 24 hr, Western blot densitometry", "value": 8.5}, {"measurement": "BiP secretion after challenge with retrieval signal", "setting": "replicate 1", "value": 15.9}, {"measurement": "BiP secretion after challenge with retrieval signal", "setting": "replicate 2", "value": 1.1}]}
